# Measurements published in patent US6737383B1, “Herbicidal oxadiazolidines” (priority 1999, dated 2004).
# What was measured:
# purple nutsedge = assay: Test B pre/postemergence purple nutsedge; format: in vivo, Cyperus rotundus
# How it was run: (§1)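 Test chemicals in a non-phytotoxic solvent mixture with surfactant were sprayed preemergence onto planted seeds and postemergence onto plants 2 to 18 cm tall (1- to 4-leaf stage). After twelve to sixteen days in a greenhouse, injury was visually rated against untreated controls from 0 (no effect) to 10 (complete control).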
# pigweed = assay: Test B pre/postemergence pigweed; format: in vivo, Amaranthus retroflexus
# How it was run: as §1
# velvetleaf = assay: Test B pre/postemergence velvetleaf; format: in vivo, Abutilon theophrasti
# How it was run: as §1
# wild oat = assay: Test B pre/postemergence wild oat; format: in vivo, Avena fatua
# How it was run: as §1
# soybean = assay: Test B pre/postemergence soybean; format: in vivo, Glycine max
# How it was run: as §1
# smallflower flatsedge = assay: Test B flood test smallflower flatsedge; format: in vivo, Cyperus difformis
# How it was run: (§2)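 Read-out is a visual response score from 0 (no effect) to 10 (complete control), assigned by comparison with untreated controls. Treatment was applied at the 2-leaf stage, and plants stayed in the greenhouse for twelve to sixteen days before scoring.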
# surinam grass = assay: Test B pre/postemergence surinam grass; format: in vivo, Brachiaria decumbens
# How it was run: as §1
# crabgrass = assay: Test B pre/postemergence crabgrass; format: in vivo, Digitaria sanguinalis
# How it was run: as §1
# wheat = assay: Test B pre/postemergence wheat; format: in vivo, Triticum aestivum
# How it was run: as §1
# cocklebur = assay: Test B pre/postemergence cocklebur; format: in vivo, Xanthium strumarium
# How it was run: as §1
# bamyardgrass = assay: Test B flood test barnyardgrass; format: in vivo, Echinochloa crus-galli
# How it was run: as §2
# bedstraw = assay: Test B pre/postemergence bedstraw; format: in vivo, Galium aparine
# How it was run: as §1
# sugar beet = assay: Test B pre/postemergence sugar beet; format: in vivo, Beta vulgaris
# How it was run: as §1
# rape = assay: Test B pre/postemergence rape; format: in vivo, Brassica napus
# How it was run: as §1
# corn = assay: Test B pre/postemergence corn; format: in vivo, Zea mays
# How it was run: as §1
# blackgrass = assay: Test B pre/postemergence blackgrass; format: in vivo, Alopecurus myosuroides
# How it was run: as §1
# [1] = Preemergence, Rate 62 g/ha, scale of 0 to 10 where 0 is no effect and 10 is complete control
# [2] = Preemergence, Rate 125 g/ha, 0 is no effect, 10 is complete control
# [3] = Preemergence, Rate 250 g/ha, scale 0 to 10, 0 is no effect, 10 is complete control
# [4] = Preemergence, Rate 500 g/ha, scale 0 to 10 (0 no effect, 10 complete control)
# [5] = Rate 62 g/ha, Postemergence, scale of 0 to 10 where 0 is no effect and 10 is complete control
# [6] = Rate 125 g/ha, Postemergence, scale 0 to 10
# [7] = Rate 500 g/ha, Postemergence, scale 0 to 10
# [8] = Rate 62 g/ha, headed Pre-emergence (flood test species), scale 0 to 10 (0 no effect, 10 complete control)
# [9] = Rate 125 g/ha, Pre-emergence, flood test species, scale 0 to 10 where 0 is no effect and 10 is complete control
# [10] = Rate 250 g/ha, Pre-emergence, flood-test species, scale 0 to 10, 0 is no effect, 10 is complete control
structure (smiles),measurement,setting,value
Cc1nc(C)c(Cn2c(=O)on(C(=O)N(c3ccc(Cl)cc3)C(C)C)c2=O)s1 [Compound 191],Nutsedge plant response rating,purple nutsedge; [1],0
same,Nutsedge plant response rating (0 to 10 scale),purple nutsedge; [2],0
same,Nutsedge plant response rating,purple nutsedge; [3],0
same,Nutsedge plant response rating,purple nutsedge; [4],0
same,Nutsedge plant response rating,purple nutsedge; [5],0
same,Nutsedge plant response rating,purple nutsedge; [6],0
same,"Plant response rating (0 to 10; 0 is no effect, 10 is complete control), Nutsedge","purple nutsedge; Rate 250 g/ha, Postemergence",0
same,Nutsedge plant response rating,purple nutsedge; [7],0
same,Redroot pigweed plant response rating,pigweed; [1],0
same,Redroot pigweed plant response rating (0 to 10 scale),pigweed; [2],0
same,Redroot pigweed plant response rating,pigweed; [3],1
same,Redroot pigweed plant response rating,pigweed; [4],6
same,Redroot pigweed plant response rating,pigweed; [5],0
same,Redroot pigweed plant response rating,pigweed; [6],0
same,"Plant response rating (0 to 10; 0 is no effect, 10 is complete control), Redroot pigweed","pigweed; Rate 250 g/ha, Postemergence",0
same,Redroot pigweed plant response rating,pigweed; [7],0
same,Velvetleaf plant response rating,velvetleaf; [1],0
same,Velvetleaf plant response rating,velvetleaf; [3],0
same,Velvetleaf plant response rating,velvetleaf; [4],0
same,Velvetleaf plant response rating,velvetleaf; [5],0
same,Velvetleaf plant response rating,velvetleaf; [6],0
same,"Plant response rating (0 to 10; 0 is no effect, 10 is complete control), Velvetleaf","velvetleaf; Rate 250 g/ha, Postemergence",2
same,Wild oats plant response rating,wild oat; [3],3
same,Wild oats plant response rating,wild oat; [4],7
same,Wild oats plant response rating,wild oat; [5],0
same,Wild oats plant response rating,wild oat; [6],0
same,"Plant response rating (0 to 10; 0 is no effect, 10 is complete control), Wild oats","wild oat; Rate 250 g/ha, Postemergence",0
same,Soybean plant response rating,soybean; [1],0
same,Soybean plant response rating (0 to 10 scale),soybean; [2],0
same,Soybean plant response rating,soybean; [3],0
same,Soybean plant response rating,soybean; [4],0
same,Soybean plant response rating,soybean; [5],3
same,Soybean plant response rating,soybean; [6],3
same,"Plant response rating (0 to 10; 0 is no effect, 10 is complete control), Soybean","soybean; Rate 250 g/ha, Postemergence",3
same,Soybean plant response rating,soybean; [7],4
same,S. Flatsedge plant response rating,smallflower flatsedge; [8],0
same,S. Flatsedge plant response rating,smallflower flatsedge; [9],0
same,S. Flatsedge plant response rating,smallflower flatsedge; [10],0
same,S. Flatsedge plant response rating,"smallflower flatsedge; Rate 500 g/ha, Pre-emergence, flood test species, scale 0 to 10 (0 no effect, 10 complete control)",0
same,B. signalgrass plant response rating,surinam grass; [1],0
same,B. signalgrass plant response rating (0 to 10 scale),surinam grass; [2],0
same,B. signalgrass plant response rating,surinam grass; [3],0
same,B. signalgrass plant response rating,surinam grass; [4],3
same,B. signalgrass plant response rating,surinam grass; [5],0
same,B. signalgrass plant response rating,"surinam grass; Rate 125 g/ha, Postemergence, scale 0 (no effect) to 10 (complete control)",0
same,"Plant response rating, B. signalgrass","surinam grass; Rate 250 g/ha, Postemergence, scale 0 to 10, 0 is no effect, 10 is complete control",0
same,B. signalgrass plant response rating,"surinam grass; Rate 500 g/ha, Postemergence, scale 0 to 10, 0 no effect, 10 complete control",1
same,Crabgrass plant response rating,crabgrass; [1],0
same,Crabgrass plant response rating (0 to 10 scale),crabgrass; [2],3
same,Crabgrass plant response rating,crabgrass; [3],8
same,Crabgrass plant response rating,crabgrass; [4],8
same,Crabgrass plant response rating,crabgrass; [5],2
same,Crabgrass plant response rating,crabgrass; [6],2
same,"Plant response rating (0 to 10; 0 is no effect, 10 is complete control), Crabgrass","crabgrass; Rate 250 g/ha, Postemergence",3
same,Crabgrass plant response rating,crabgrass; [7],6
same,Wheat plant response rating,wheat; [1],0
same,Wheat plant response rating,wheat; [3],0
same,Wheat plant response rating,wheat; [4],2
same,Wheat plant response rating,wheat; [5],0
same,Wheat plant response rating,wheat; [6],0
same,"Plant response rating (0 to 10; 0 is no effect, 10 is complete control), Wheat","wheat; Rate 250 g/ha, Postemergence",0
same,Cocklebur plant response rating,cocklebur; [1],0
same,Cocklebur plant response rating (0 to 10 scale),cocklebur; [2],0
same,Cocklebur plant response rating,cocklebur; [3],0
same,Cocklebur plant response rating,cocklebur; [4],0
same,Cocklebur plant response rating,cocklebur; [5],1
same,Cocklebur plant response rating,cocklebur; [6],2
same,"Plant response rating (0 to 10; 0 is no effect, 10 is complete control), Cocklebur","cocklebur; Rate 250 g/ha, Postemergence",2
same,Cocklebur plant response rating,cocklebur; [7],3
same,Barnyardgrass plant response rating,bamyardgrass; [8],0
same,Barnyardgrass plant response rating,bamyardgrass; [9],0
same,Barnyardgrass plant response rating,bamyardgrass; [10],0
same,"Plant response rating, Barnyardgrass","bamyardgrass; Rate 500 g/ha, headed Pre-emergence (flood test species), scale 0 to 10 (0 no effect, 10 complete control)",0
same,Bedstraw plant response rating,bedstraw; [1],0
same,Bedstraw plant response rating (0 to 10 scale),bedstraw; [2],0
same,Bedstraw plant response rating,bedstraw; [3],0
same,Bedstraw plant response rating,bedstraw; [4],0
same,Bedstraw plant response rating,bedstraw; [5],0
same,Bedstraw plant response rating,bedstraw; [6],0
same,"Plant response rating (0 to 10; 0 is no effect, 10 is complete control), Bedstraw","bedstraw; Rate 250 g/ha, Postemergence",0
same,Bedstraw plant response rating,bedstraw; [7],0
same,Sugarbeets plant response rating,sugar beet; [1],0
same,Sugarbeets plant response rating (0 to 10 scale),sugar beet; [2],0
same,Sugarbeets plant response rating,sugar beet; [3],0
same,Sugarbeets plant response rating,sugar beet; [4],0
same,Sugarbeets plant response rating,sugar beet; [5],0
same,Sugarbeets plant response rating,sugar beet; [6],0
same,"Plant response rating (0 to 10; 0 is no effect, 10 is complete control), Sugarbeets","sugar beet; Rate 250 g/ha, Postemergence",0
same,Sugarbeets plant response rating,sugar beet; [7],0
same,Rape plant response rating,rape; [1],0
same,Rape plant response rating (0 to 10 scale),rape; [2],0
same,Rape plant response rating,rape; [3],0
same,Rape plant response rating,rape; [4],0
same,Rape plant response rating,rape; [5],0
same,Rape plant response rating,rape; [6],0
same,"Plant response rating (0 to 10; 0 is no effect, 10 is complete control), Rape","rape; Rate 250 g/ha, Postemergence",0
same,Rape plant response rating,rape; [7],0
same,Corn plant response rating,corn; [1],0
same,Corn plant response rating (0 to 10 scale),corn; [2],0
same,Corn plant response rating,corn; [3],0
same,Corn plant response rating,corn; [4],0
same,Corn plant response rating,corn; [5],0
same,Corn plant response rating,corn; [6],0
same,"Plant response rating (0 to 10; 0 is no effect, 10 is complete control), Corn","corn; Rate 250 g/ha, Postemergence",0
same,Corn plant response rating,corn; [7],0
same,Blackgrass plant response rating,blackgrass; [1],0
same,Blackgrass plant response rating (0 to 10 scale),blackgrass; [2],0
same,Blackgrass plant response rating,blackgrass; [3],4
same,Blackgrass plant response rating,blackgrass; [4],6
same,Blackgrass plant response rating,blackgrass; [5],0
same,Blackgrass plant response rating,blackgrass; [6],0
same,"Plant response rating (0 to 10; 0 is no effect, 10 is complete control), Blackgrass","blackgrass; Rate 250 g/ha, Postemergence",0
same,Blackgrass plant response rating,blackgrass; [7],3
